Consider 11 molecules from US20250195477A1, “DEUTERATED IDAZOXAN AND METHODS OF USE THEREOF” (Terran Biosciences Inc., priority 2022, published 2025).

One may read the half-life as the time needed for the level to fall by half in the phase considered. High values mean slow loss, low ones fast loss.

Data set [1] in a line: Metabolic stability in human liver microsomes. It is filed as in vitro ADME. The note with it: significant if half-life increase >=15% or CLint ratio (deuterated compound/idazoxan) >1.15 or <0.85. Here is the method:
Test compound (1 μM) was incubated with pooled liver microsomes.
Pooled liver microsomes were purchased from a reputable commercial supplier. Microsomes were stored at −80° C. prior to use.
A minus cofactor control incubation was included for each compound tested where 0.1 M phosphate buffer pH 7.4 was added instead of NADPH (minus NADPH). Two control compounds were included with each species. All incubations were performed singularly for each test compound.
The reactions were stopped by transferring incubate into acetonitrile at the appropriate time points, in a 1:3 ratio. The termination plates were centrifuged at 3,000 rpm for 20 min at 4° C. to precipitate the protein.
Following protein precipitation, the sample supernatants were combined in cassettes of up to 4 compounds, internal standard was added and samples analysed using generic LCMS/MS conditions.
From a plot of In peak area ratio (compound peak area/internal standard peak area) against time, the gradient of the line was determined. Subsequently, half-life and intrinsic clearance were calculated using the equations below:
where V=Incubation volume (μL)/Microsomal protein (mg)
Relevant control compounds were assessed, ensuring intrinsic clearance values fell within the specified limits (if available). Any failures were rejected and the assay repeated. The intrinsic clearance (CLint) of the test compound and standard error (SE CLint), t½ and n (number of time points used to calculate CLint) were returned.

Data set [2] is described as follows: Metabolic stability in human liver microsomes. It is filed as in vitro ADME. Particulars: pH 7.4, pooled human liver microsomes 0.5 mg/mL, test compound 3 μM, NADPH, 0, 5, 15, 30, 45 min, LC-MS/MS; for microsomal CLint at 3 μM: read-out: CLint (μL/min/mg protein).
The conditions of data set [3]: background statement; species and route not given; cited from earlier work.

For `[2H]c1ccc2c(c1)OCC(C1=NCCN1)O2` (centres unmarked) [Compound 1, 2-(2,3-dihydrobenzo[b][1,4]dioxin-2-yl-6-d)-4,5-dihydro-1H-imidazole], the “differences in in vitro clearance and half-life compared to idazoxan” value (from here on “differences”) in data set [1] was “significant differences”. For the same molecule, in data set [2], the half-life at 3 μM was found to be 8.05 h and the microsomal CLint at 3 μM is 2.87 µL/min/mg.

Take `[2H]c1ccc2c(c1)OC(C1=NCCN1)CO2` (centres unmarked) [Compound 2, 2-(2,3-dihydrobenzo[b][1,4]dioxin-2-yl-7-d)-4,5-dihydro-1H-imidazole]: in data set [1], the “differences” value is recorded as “significant differences”. For the same molecule, in data set [2], the half-life at 3 μM was 21.8 h and the microsomal CLint at 3 μM is 1.06 µL/min/mg.

Regarding `[2H]c1cc2c(cc1[2H])OC(C1=NCCN1)CO2` (centres unmarked) [Compound 3, 2-(2,3-dihydrobenzo[b][1,4]dioxin-2-yl-6,7-d2)-4,5-dihydro-1H-imidazole], in data set [1], the “differences” value is given as “significant differences”. In addition, in data set [2], the half-life at 3 μM was determined as 10.4 h and the microsomal CLint at 3 μM stood at 2.23 µL/min/mg.

For `[2H]c1c([2H])c([2H])c2c(c1[2H])OCC(C1=NCCN1)O2` (centres unmarked) [Compound 4, 2-(2,3-dihydrobenzo[b][1,4]dioxin-2-yl-5,6,7,8-d4)-4,5-dihydro-1H-imidazole], the “differences” value in data set [1] was “significant differences”. For the same molecule, in data set [2], the half-life at 3 μM came to 8.93 h and the microsomal CLint at 3 μM was 2.59 µL/min/mg.

On to `[2H]c1ccc2c(c1)OCC(C1=NC([2H])([2H])C([2H])([2H])N1)O2` (centres unmarked) [Compound 49, 2-(2,3-dihydrobenzo[b][1,4]dioxin-2-yl-6-d)-4,5-dihydro-1H-imidazole-4,4,5,5-d4], for which the “differences” value in data set [1] is recorded as “significant differences”. Further, in data set [2], the half-life at 3 μM is 15.5 h and the microsomal CLint at 3 μM turned out to be 1.49 µL/min/mg.

On to `[2H]c1ccc2c(c1)OC(C1=NC([2H])([2H])C([2H])([2H])N1)CO2` (centres unmarked) [Compound 50, 2-(2,3-dihydrobenzo[b][1,4]dioxin-2-yl-7-d)-4,5-dihydro-1H-imidazole-4,4,5,5-d4], for which the “differences” value in data set [1] is on record as “significant differences”. Moreover, in data set [2], the half-life at 3 μM came to 913 h and the microsomal CLint at 3 μM was 0.0253 µL/min/mg.

Turning to `[2H]c1cc2c(cc1[2H])OC(C1=NC([2H])([2H])C([2H])([2H])N1)CO2` (centres unmarked) [Compound 51, 2-(2,3-dihydrobenzo[b][1,4]dioxin-2-yl-6,7-d2)-4,5-dihydro-1H-imidazole-4,4,5,5-d4], the “differences” value in data set [1] was “significant differences”. Also, in data set [2], the half-life at 3 μM was 13.8 h and the microsomal CLint at 3 μM turned out to be 1.68 µL/min/mg.

Turning to `[2H]c1c([2H])c([2H])c2c(c1[2H])OCC(C1=NC([2H])([2H])C([2H])([2H])N1)O2` (centres unmarked) [Compound 52, 2-(2,3-dihydrobenzo[b][1,4]dioxin-2-yl-5,6,7,8-d4)-4,5-dihydro-1H-imidazole-4,4,5,5-d4], the “differences” value in data set [1] is “significant differences”. In data set [2], the half-life at 3 μM amounted to 7.75 h and the microsomal CLint at 3 μM worked out at 2.98 µL/min/mg.

In the case of `[2H]C1([2H])N=C(C2COc3ccccc3O2)NC1([2H])[2H]` (centres unmarked) [Compound 64, 2-(2,3-dihydrobenzo[b][1,4]dioxin-2-yl)-4,5-dihydro-1H-imidazole-4,4,5,5-d4], the “differences” value in data set [1] is “significant differences”. In data set [2], the half-life at 3 μM came to 7.95 h and the microsomal CLint at 3 μM came out at 2.91 µL/min/mg.

For the molecule `COc1ccc2c(c1)[C@]13CCCC[C@@H]1[C@H](C2)N(C)CC3` [Dextromethorphan, reference compound], in data set [2], the half-life at 3 μM was 0.48 h and the microsomal CLint at 3 μM came to 48.1 µL/min/mg.

Take `c1ccc2c(c1)OCC(C1=NCCN1)O2` (centres unmarked) [Idazoxan]: in data set [2], the half-life at 3 μM stood at 4.28 h and the microsomal CLint at 3 μM was determined as 5.39 µL/min/mg. The “idazoxan reaching systemic circulation” value in data set [3] was 27-28%.
